Test results from paper PMC13081163, “Discovery of a novel Nrf2 activator that modulates mitochondrial function in neurons by regulating DHRS3-Nrf2 interaction after ischemic stroke” (Theranostics, 2026).

Legend:
[1] = In vitro hepatic microsomal stability, overall statement; format: in vitro ADME, human, dog, rat
Protocol: (§1) The liver microsomal incubation system comprised human, dog, or rat liver microsomal protein (0.75 mg/mL), nicotinamide adenine dinucleotide phosphate (NADPH) generation system, potassium phosphate buffer (0.1 M, pH 7.4), substrate, and inhibitor. The assay was conducted by first preparing a potassium phosphate buffer. Compounds and liver microsomes were then diluted and pre-incubated at 37 °C before initiating the reaction with NADPH. Aliquots were quenched with acetonitrile containing internal standard at specified time points. After sample processing (shaking and centrifugation), the supernatants were analyzed by LC-MS/MS to determine metabolic stability.

[2] = Pharmacokinetics in male rats (LC-MS/MS); format: in vivo; conditions: SD, rat, plasma, iv, 5 mg/kg
Protocol: Male SD rats were intravenous injection with Cpd.51, blood and brain tissues were collected 15 min, 1 h, 4 h, 6 h, 8 h and 24 h after drug administration. Samples were measured by a Shimadzu chromatography system (Shimadzu, Kyoto, Japan) coupled with an AB Sciex triple quadrupole 4500 mass spectrometer (SCIEX Triple Quad™ 4500 LC-MS/MS, Applied Biosystems Sciex, Ontario, Canada) using Analyst 1.4.2 software. A HPLC column (ACQUITY UPLC BEH C18, 2.1 × 50 mm, 1.7 μm) were used. Protein precipitation method was used for detection: 50 μL plasma sample or brain homogenate sample were added with 200 μL acetonitrile containing internal standard for precipitation, then vortexed for 3 min. The supernatant was injected into system for analysis after centrifugation.

[3] = Microsomal metabolic stability, rat; format: in vitro ADME; conditions: rat liver microsomes
Protocol: as §1

tMCAO rats = assay: Long-term recovery after tMCAO (survival, body weight, behaviour); format: in vivo, rat; conditions: 5 mg/kg tail vein injection for 7 d
Protocol: To assess the degree of neurological impairment, we conducted modified Neurological Severity Score (mNSS) according to previous experience. The investigator was blinded to the grouping situation during the whole experiment.
On postoperative day 3 two wooden boards of identical size were joined at a 30° angle, with a narrow gap retained at the junction. The rat was positioned facing the apex of the angle. When it advanced into the deeper part of the angle, bilateral whisker contact with the boards triggered a characteristic rearing response, followed by a turn to face the opposite direction. Each rat underwent 15 trials, and the number of right turns was recorded. The higher the right-turn ratio, the more severe the injury.
Rats were placed on a horizontal, stainless steel wire grid. The grid was then smoothly rotated 180 degrees to an inverted position and held stationary at a height of 0.8 m. A stopwatch was started immediately upon inversion to measure the latency to fall. The test was terminated if the animal remained on the grid for 60 s, at which point it was gently returned to its home cage, and a score of 60 s was recorded.
The Y-maze apparatus consisted of three symmetrically arranged enclosed arms (typically labeled Arms A, B, and C), each positioned 120° apart. At the start of each trial, the subject was placed in Arm A and allowed to move freely through the maze for 8 min. Spatial working memory was evaluated by calculating the spontaneous alternation rate, using the following formula:
Following a 2 h acclimation period, the rats were within an open field cubic box (100 × 100 × 40 cm^3) and allowed 5 min of unrestricted movement. The travel distance and the time spent in the central area were recorded.
The spatial learning and memory of rats were assessed using the Morris water maze (MWM) from post-operative days 23 to 26. Over four consecutive days, animals underwent training trials in which they were required to locate a submerged escape platform within 60 s. Each rat was gently placed into the water facing the pool wall. If the rat found the platform and remained on it for 10 s, the escape latency was recorded. If the platform was not found within 60 s, the rat was guided onto it and allowed to stay for 10 s, and the latency was recorded as 60 s. Following the training phase, the platform was removed, and a visual spatial memory test lasting for 60 s was conducted to assess the retention of memory. The number of platform-location crossings and the time spent in the target quadrant were recorded and analyzed.

[4] = tested on: ARE-luciferase reporter (Nrf2 activation), Hek-293T cells; assay: ARE-luciferase reporter gene assay; format: cell-based; conditions: Homo sapiens
Protocol: The Hek-293T cells were cultured in 96-well plates 24 h before transfection with ARE-luciferase reporter plasmid (11548ES03, Yeasen, China) for 48 h according to the manufacturer's instructions. The Firefly luciferase activities was carried out 12 h after the drug treatment, as described by the manufacturer (11412ES81, Yeasen, China).

[5] = Acute (7-day i.v.) toxicity in rats; format: in vivo, rat; conditions: 10 mg/kg i.v. daily for 7 days
Protocol: Cpd.51 was dissolved in solvent (10% DMSO, 10% Solutol HS-15 and 80% saline). It was injected (i.v.) at dose of 3 mg/kg or 5 mg/kg in a 0.5 mL volume. The Sham group and Vehicle group were treated simultaneously with an equal volume of solvent. In the experiment to explore the treatment time window, we merely administered the drug to the rats at different time points, while all other procedures remained unchanged. In the short-term toxicity study, 10 mg/kg Cpd.51 and Oma were administered via tail vein injection at 0.5 mL daily for 7 consecutive days.
Glutamic-pyruvic transaminase (GPT) kits (ml092635, mlbio, China), glutamic oxaloacetic transaminase (GOT) kits (ml092714, mlbio, China), creatinine (CRE) kits (M12C4L, mlbio, China) and blood urea nitrogen (BUN) kits (ml076479, China) were used to detect the serum of rats in order to evaluate liver and kidney functions. Male and female rats were randomly divided into Sham group, Cpd.51 group and Oma group. Doses were administered once daily at 10 mg/kg and body weights were recorded accordingly. Sham groups were given the same volume of solvent. After 7 days, the […] were sacrificed, serum was collected and tested according to the instructions.

[6] = 28-day long-term toxicity in rats (intragastric); format: in vivo, rat; conditions: 28 days intragastric; Oma 10 mg/kg, Cpd.51 1, 3 and 10 mg/kg
Protocol: During the long-term toxicity test, rats in each group received daily intragastric administration for 28 consecutive days. Animals in the Sham group were administered a mixture of 99% sesame oil and 1% DMSO at a volume of 0.5 mL per rat. Rats in the remaining groups were intragastrically administered varying doses of the respective therapeutic agents.
During the 28-day long-term toxicity study, rats were euthanized following the completion of continuous intragastric administration. Livers and kidneys from both male and female rats in each group were photographed for macroscopic examination, and serum samples were collected for subsequent kit-based analysis. The liver/kidney index was obtained by dividing the weight of the liver/kidney by the body weight.

CC1(C)CCC2(C(=O)NO)CCC3(C)C(C(=O)C=C4C5(C)C=C(C#N)C(=O)C(C)(C)C5CCC43C)C2C1 (centres unmarked) [Cpd.51]
metabolic stability in microsomes [1]: moderate metabolic stability | AUC(0-t) [2]: 991 ± 70 ng·h/mL | C0 [2]: 3410 ± 45 ng/mL | Cmax [2]: 2120 ± 75 ng/mL | MRT last [2]: 50.6 ± 3.24 min | clearance ([2]; i.v., read-out: CL_obs (converted)): 83.5 mL/min/kg | Remainig (%, t = 60 min) [3]: 51.1% | CLint scaled ([3]; rat, pH 7.4): 41 mL/min/kg | half-life ([3]; rat, pH 7.4): 60.8 min | Morris water maze, spatial learning and memory (tMCAO rats): only a modest capacity to improve these cognitive functions | body weight and mNSS scores, long-term (tMCAO rats): significantly improved body weight and mNSS scores | mortality after tMCAO (tMCAO rats): reduced mortality | corner, inverted screen, Y maze and open field tests (tMCAO rats; vs model group): exhibited improvements in neurological deficits, motor abilities, and spatial working and reference memory | EC50 ([4]; HEK-293T, cells transfected with NC-OE control plasmid): 56.7 nM | EC50 ([4]; Hek-293T cells, 12 h after drug treatment): 48.1 nM | liver hypertrophy, serum GPT and GOT [5]: not observed | serum CRE and BUN [5]: did not induce these changes | weight gain [5]: suppressed weight gain | body weight [6]: neither compound significantly affected body weight | plasma markers of hepatic and renal injury [6]: showed no such effects at any dose tested
